Results on 1 molecule are retold here after US20260000645A1, “USE OF EBSELEN OR ONE OF THE DERIVATIVES THEREOF TO TREAT MITOCHONDRIAL PATHOLOGIES OR DYSFUNCTIONS” (ASSOCIATION FRANCAISE CONTRE LES MYOPATHIES, priority 2022, published 2026).

The test system of series [1] is fibroblast lines of patients carrying mutations of the nuclear gene NDUFV1. Nature of the series: Mitochondrial respiration of NDUFV1 patient fibroblasts (Seahorse XF96). The class given is cell-based, human. The settings on record: 48 h exposure. The protocol: EBS was also tested for the ability thereof to restore mitochondrial respiration of fibroblast lines of patients carrying mutations of the nuclear gene NDUFV1 of mitochondrial complex I. The human lines NDUFV1 mimicking the human illnesses related to a mitochondrial deficit of complex I (Leigh's syndrome) are carriers of genetic mutations affecting the gene NDUFV1. These cell lines were cultivated in a DMEM medium containing 1.0 g/L of glucose and 1 mM of sodium pyruvate and 50 μg/ml of uridine (Sigma Aldrich, Lyon, France).
The respiration was measured using a Seahorse XF96 extracellular flow metabolic analyzer in 96 well plates according to the manufacturer's protocol (Agilent Technologies). Deficient cells were exposed for 48 h to different concentrations with a dose response curve associating a range of concentrations from 25 nM to 10 μM. […]
The measurement of the oxygen consumption rate (OCR) was recorded under basal conditions to evaluate the mitochondrial respiratory activity and then the cells were treated sequentially with 4 μg/mL of oligomycin and 1.5 μM of carbonyl cyanide p-(trifluoromethoxy) phenylhydrazone (FCCP) (Sigma-Aldrich). The basal OCR, the respiration related to ATP, the maximum respiratory capacity and the respiration by proton leak were determined. […] Maximum respiratory capacity has been determined as the rate of respiration in the presence of uncoupling FCCP. […]

For series [2], the system named is fibroblasts of TAZ patients. The series can be described thus: Mitochondrial ATP level in fibroblasts of TAZ patients (CellTiter-Glo). The class given is cell-based, human. The settings on record: EBS 12.15 nM for 96 hours. The protocol: The levels of mitochondrial ATP in the fibroblasts of TAZ patients were evaluated using a Promega CellTiter-Glo kit. The cells in 96 well plates (5000/well) were treated or not treated with 12.15 nM of EBS for 96 hours then were incubated in the presence of Antimycin A (100 μM), of Rotenone (0.5 μM) or oligomycin A (3 μM).
(Cellular ATP, detected with luciferase, serves as a proxy for viable cell number.)

In series [3] the test system is mutant yeast strains (cox2, sym1, fmc1, atp6, taz1, shy1, A29G). The series can be described thus: Halos test: respiratory growth of mutant yeast strains on non-fermentable solid medium. In kind it is cell-based, Saccharomyces cerevisiae. To be noted: 30 and 90 nmoles on filter, 28° C. or 36° C., 4 to 5 days. The protocol:
Each of the strains of the yeast Saccharomyces cerevisiae used in these examples contain different specific mutations modeling human mutations leading to mitochondrial illnesses. At varying degrees, all these mutant yeast strains have a growth defect when cultivated on a respiratory medium such as ethanol or glycerol at 28° C. or 36° C. (depending on the strain).
• fmc: MC6 MATa ade2-1 his3-11,15 trp1-1 leu2-3,112 ura3-I fmc1: :HIS3 [Δi ER OR] (Schwimmer, C. et al. (2005) J Biol Chem, 280, 30751-30759) for the first screening • MR14 MATa ade2-1 his3-11,15 trp1-1 leu2-3,112 ura3-1 CAN1 arg8::HIS3 ρ+ atp6-L173R or RKY20MATa ade2-1 his3-11,15 trp1-1 leu2-3,112 ura3-1 CAN1 arg8::HIS3 ρ+ atp6-L173P (Rak, M. et al. (2007) J Biol Chem, 282, 34039-34047) for the second screening • taz1Δ: this strain was produced by substituting the open reading framework of TAZ1 by that of TRP1 in the strain W303-1A (MATa ade2-1 ura3-1 his311, 15 trp1-1 leu2-3, 112 can1-100) (from Taffin de Tilques, M. et al. (2017) Dis Model Mech, 10, 439-450) • shy1-G137R: this mutant was produced in the strain CW252 containing the nuclear base of W303 and a mitochondrial gene lacking intron. […]

For the molecule `O=c1c2ccccc2[se]n1-c1ccccc1` [ebselen, 2-phenyl-1,2-benzisoselenazol-3(2H)-one], in series [1], the toxic concentration is more than 10 µM. Moreover, in series [2], the “mitochondrial ATP production” value is “improves”. Also, the “respiratory growth (halo of improved growth)” value in series [3] was “active on all the mutant strains of yeast tested in a dose dependent manner”.
